According to paper PMC4762250, “Novel cis-selective and non-epimerisable C3 hydroxy azapodophyllotoxins targeting microtubules in cancer cells” (European Journal of Medicinal Chemistry, 2016):
Where two headings read alike, the source gives them in different places.

What was measured:
[1] = tested on: human breast cancer cell line MCF-7; assay: Oncotest propidium iodide monolayer cell proliferation assay, MCF-7; format: cell-based
Experimental: (§1) The anticancer activity of compounds (8a-q) was evaluated using the Oncotest monolayer assay in the human prostate cancer cell line 22Rv1 and the human breast cancer cell line MCF-7, as an outsourced service. […] Antitumour activity was assessed after four days of treatment with the compounds using a propidium iodide based monolayer assay. Potency is expressed as absolute IC50 values, calculated by non-linear regression analysis following testing in triplicate. The seventeen inhibitors were tested at 10 concentrations in half-log increments up to 100 μM in triplicate.
(§2) A modified propidium iodide (PI) based monolayer assay was used to assess the anti-cancer activity of the compounds. Briefly, cells were harvested from exponential phase cultures, counted and plated in 96-well flat-bottom microtiter plates at a cell density of 8.000–12.000 cells/well. After a 24 h recovery period to allow the cells to resume exponential growth, 10 μl of culture medium (six control wells/plate) or culture medium with test compound were added. The compounds were applied in half-log increments at 10 concentrations in triplicate. After a total treatment period of 96 h, cells were washed with 200 μl PBS to remove dead cells and debris. Then, 200 μl of a solution containing 7 μg/mL propidium iodide (PI) was added. After an incubation period of 1–2 h at room temperature, fluorescence (FU) was measured using the EnSpire Multimode Plate Reader (excitation λ = 530 nm, emission λ = 620 nm) to quantify the amount of attached viable cells. IC50 values were calculated by 4-parameter non-linear curve fit using Oncotest Warehouse Software. For calculation of mean IC50 values the geometric mean was used.

MCF-7 and 22Rv1 = assay: Oncotest monolayer assay, results stated over both cell lines; format: cell-based, human; details: for IC50: Homo sapiens; for antiproliferative activity (in words): MCF-7 and 22Rv1
Experimental: as §1, §2

[2] = tested on: microtubules in MCF-7 cells; assay: Microtubule repolymerisation assay, first variation (6 h pre-treatment); format: cell-based, human; details: 250 nM 6 h pre-treatment, 30 min on ice, rewarmed 37 °C 30 min
Experimental: (§3) Cold depolymerisation of the tubulin cytoskeleton in vitro, including in MCF-7 cells, can be achieved by relatively short incubations at 4 °C [27], [28], [29]. To test the ability of the compounds to impair microtubule polymerisation, following depolymerisation, two variations of a tubulin re-polymerisation assay were performed. In the first, MCF-7 cells were pre-treated for 6 h with 250 nM of the compounds before being incubated on ice for 30 min then rewarmed to 37 °C for a further 30 min. In the second variation, cells were first incubated on ice then rewarmed to 37 °C in the presence of the compounds (250 nM, 30 min total treatment time). Samples of cells were fixed post-cold depolymerisation and post-warm repolymerisation. In both variations, immunofluorescence for α-tubulin was performed and cells were imaged by confocal microscopy (Fig. 6 and 7). In control and treated cells, incubation on ice for 30 min led to total loss of filamentous tubulin and the protein was diffusely scattered throughout the cytoplasm. […] Upon increasing the temperature to 37 °C for 30 min there was clear repolymerisation of the microtubule network.
Following cell seeding (42 h) the media was replaced with drug (or diluent control) containing complete media and cells were treated for 6 h with 250 nM of podophyllotoxin, compound 8e, 8b or 0.01% DMSO. The plates were then placed on ice and cells were incubated at 4 °C for 30 min to depolymerise the tubulin cytoskeleton, [28], [30]. One set of cover slips for each treatment condition was prepared for tubulin immunofluorescence (see protocol below) and the remaining sets of cover slips were returned to the incubator (37 °C, 5% CO2) for 30 min to allow re-polymerisation of microtubules. Tubulin immunofluorescence was performed after the cells had been rewarmed for 30 min (see below). […]
(§4) Confocal fluorescence microscopy analysis was conducted on a Leica SP5 inverted confocal laser scanning microscope. […] Images were recorded using the sequential scanning mode to prevent fluorescence channel crosstalk/bleed-through. […]

[3] = tested on: human prostate cancer cell line 22Rv1; assay: Oncotest propidium iodide monolayer cell proliferation assay, 22Rv1; format: cell-based; details: mean absolute IC50, 96 h treatment, propidium iodide endpoint, triplicate
Experimental: as §1, §2

[4] = tested on: microtubules in MCF-7 cells; assay: Microtubule immunofluorescence assay (α-tubulin, confocal microscopy); format: cell-based, human; details: 250 nM, 6 h; for effect on tubulin cytoskeleton: MCF-7, interphase cells for 8e and 8b, all cells for podophyllotoxin
Experimental: In order to investigate the microtubule-destabilising ability of these analogues, experiments were conducted to determine their effects on the subcellular organisation of microtubules in vitro [27]. […] The nuclei of control interphase cells were relatively monomorphic. […] Analogue treated cells in interphase featured shorter microtubule filaments and slightly more disordered microtubule networks than control cells.
Following cell seeding (42 h) the media was replaced with fresh complete media containing 250 nM of podophyllotoxin, compound 8e and 8b or 0.01% DMSO. The cells were treated for 6 h with drug or diluent control then subjected to downstream immunofluorescence analysis (see tubulin immunofluorescence protocol).
The media was aspirated and the cells were washed once in ice-cold PBS before being fixed in 100% methanol at −20 °C for 10 min. The cells were then washed thrice in PBS and stored overnight at 4 °C. The following day cells were incubated in 150 μL of blocking solution (2% FBS [v/v], 2% BSA [w/v] in PBS pH 7.4) for 30 min. Blocking was followed by 1 h incubation with 100 μl of mouse anti-α tubulin antibody diluted 1:2000 in blocking solution. Cells were then washed 3 × 5min in PBS before being incubated with Alexa488 labelled, anti-mouse secondary antibody (1:400) and Hoechst 33342 (1 μg/ml) for 30 min. The cells were washed a final 3 × 5 min in PBS before coverslips were dipped once into PBS, once into dH2O and mounted onto glass slides with 12 μL of mounting medium (Dako oil). Three independent experiments were carried out in duplicate.
Confocal fluorescence microscopy analysis was conducted on a Leica SP5 inverted confocal laser scanning microscope. The microscope was equipped with a 63x oil-immersion objective and the 405 and 488 nm lasers were used. Gain and offset settings were optimised for each fluorescent channel within an experiment. Images were recorded using the sequential scanning mode to prevent fluorescence channel crosstalk/bleed-through. Images were scanned at 100 Hz with a line average of three to reduce noise.

[5] = tested on: microtubules in MCF-7 cells; assay: Microtubule repolymerisation assay, second variation (no pre-treatment); format: cell-based, human; details: 30 min on ice, then rewarmed 37 °C 30 min in presence of 250 nM compound
Experimental: as §3
Following cell seeding (42 h), the plates were placed on ice for 30 min to cold-depolymerise the tubulin cytoskeleton. Control cold-depolymerised coverslips were then immediately prepared for tubulin immunofluorescence and the remaining coverslips were rewarmed and treated with 250 nM of podophyllotoxin, compound 8e, 8b or 0.01% DMSO for 30 min (37 °C, 5% CO2). Together with the controls these were then subjected to tubulin immunofluorescence.
The media was aspirated and the cells were washed once in ice-cold PBS before being fixed in 100% methanol at −20 °C for 10 min. The cells were then washed thrice in PBS and stored overnight at 4 °C. […]
as §4

[6] = Homo sapiens, MCF7, 96 h, mean absolute IC50, 96 h treatment, propidium iodide endpoint, triplicate, read-out: MCF-7 IC50
[7] = geometric mean over MCF-7 and 22Rv1, read-out: Mean IC50 values

| Compound | IC50 [1, 6] [µM] | IC50 ([3]; Homo sapiens, 22Rv1, 96 h) [nM] | IC50 (MCF-7 and 22Rv1; [7]) [nM] | antiproliferative activity (in words) (MCF-7 and 22Rv1) | also measured |
| --- | --- | --- | --- | --- | --- |
| O=C1OC[C@]2(O)Nc3c(c4cccnc4c4ncccc34)[C@@H](c3ccccc3OC(F)(F)F)[C@H]12 (mixture of isomers) [Compound 8b, (9aS, 12aS, 13S) and (9aR, 12aR, 13R) 9a-hydroxy-13-(2-(trifluoromethoxy)phenyl)-9a,10,12a,13-tetrahydrofuro[3,4-b]pyrido[3,2-f][1,10]phenanthrolin-12(9H)-one] | 0.288 | 165 |  |  | concentration-effect curve (MCF-7 and 22Rv1; cell viability, ten concentrations up to 100 μM, Fig. 3): sigmoidal concentration-effect curves with low bottom plateaus indicating total cell kill at higher test concentration; repolymerisation of tubulin following cold depolymerisation [2]: the microtubule cytoskeleton was still able to reform but mitotic defects and shorter filaments; effect on tubulin cytoskeleton [4]: more subtle changes in the tubulin filaments and their organisation; induced defects in dividing cells ([4]; MCF-7 dividing cells): aberrations of spindle morphology and polarity, nuclear atypia (pleomorphism, pyknosis) and uncongressed/misaligned chromosomes; repolymerisation of tubulin following cold depolymerisation [5]: the microtubule cytoskeleton was able to reform with negligible defects |
| CCOc1ccc([C@@H]2c3c(c4cccnc4c4ncccc34)N[C@@]3(O)COC(=O)[C@H]23)cc1C(F)(F)F (mixture of isomers) [Compound 8k, (9aS, 12aR, 13R) and (9aR, 12aS, 13S) 13-(4-ethoxy-3-(trifluoromethyl)phenyl)-9a-hydroxy-9a,10,12a,13-tetrahydrofuro[3,4-b]pyrido[3,2-f][1,10] phenanthrolin-12(9H)-one] | 0.355 | 295 | < 500 | more active than etoposide in both cell lines |  |
| O=C1OC[C@]2(O)Nc3c(c4cccnc4c4ncccc34)[C@@H](c3ccc(OC(F)F)cc3)[C@@H]12 (mixture of isomers) [Compound 8l, (9aS, 12aR, 13R) and (9aR, 12aS, 13S) 13-(4-(difluoromethoxy)phenyl)-9a-hydroxy-9a,10,12a,13-tetrahydrofuro[3,4-b]pyrido[3,2-f][1,10]phenanthrolin-12(9H)-one] | 0.901 | 719 | 500 to 1000 |  |  |
| Cc1ccc(OC(F)(F)F)cc1[C@@H]1c2c(c3cccnc3c3ncccc23)N[C@@]2(O)COC(=O)[C@H]12 (mixture of isomers) [Compound 8m, (9aS, 12aR, 13R) and (9aR, 12aS, 13S) 9a-hydroxy-13-(2-methyl-5-(trifluoromethoxy)phenyl)-9a,10,12a,13-tetrahydrofuro[3,4-b]pyrido[3,2-f][1,10]phenanthrolin-12(9H)-one] | 3.31 | 2840 | < 10000 |  |  |
| O=C1OC[C@]2(O)Nc3c(c4cccnc4c4ncccc34)[C@@H](c3ccc(S(F)(F)(F)(F)F)cc3)[C@@H]12 (mixture of isomers) [Compound 8n, (9aS, 12aR, 13R) and (9aR, 12aS, 13S) 9a-hydroxy-13-(4-(pentafluorosulfanyl)phenyl)-9a,10,12a,13-tetrahydrofuro[3,4-b]pyrido[3,2-f][1,10] phenanthrolin-12(9H)-one] | 0.857 | 590 | 500 to 1000 | submicromolar activity |  |
| COc1cc(OC(F)(F)F)ccc1[C@@H]1c2c(c3cccnc3c3ncccc23)N[C@@]2(O)COC(=O)[C@@H]12 (mixture of isomers) [Compound 8o, (9aS, 12aS, 13S) and (9aR, 12aR, 13R) 9a-hydroxy-13-(2-methoxy-4-(trifluoromethoxy)phenyl)-9a,10,12a,13-tetrahydrofuro[3,4-b]pyrido[3,2-f][1,10]phenanthrolin-12(9H)-one] | 0.396 | 322 | < 500 | more active than etoposide in both cell lines |  |
| COc1cc([C@@H]2c3c(c4cccnc4c4ncccc34)N[C@@]3(O)COC(=O)[C@H]23)cc2c1OCO2 (mixture of isomers) [Compound 8p, (9aS, 12aR, 13R) and (9aR, 12aS, 13S) 9a-hydroxy-13-((5-methoxy-3,4-methylenedioxy)phenyl)-9a,10,12a,13-tetrahydrofuro[3,4-b]pyrido[3,2-f][1,10]phenanthrolin-12(9H)-one] | 7.3 | 4000 | < 10000 |  | IC50 ([1]; mean absolute IC50, 96 h treatment, propidium iodide endpoint, triplicate, read-out: MCF-7 IC50): 7.25 µM; IC50 [3]: 4000 nM |
| O=C1OC[C@]2(O)Nc3c(c4cccnc4c4ncccc34)[C@@H](c3ccc4c(c3)OC(F)(F)O4)[C@@H]12 (mixture of isomers) [Compound 8q, (9aS, 12aR, 13R) and (9aR, 12aS, 13S) 13-((3,4-difluoromethylenedioxy)phenyl)-9a-hydroxy-9a,10,12a,13-tetrahydrofuro[3,4-b]pyrido[3,2-f][1,10]phenanthrolin-12(9H)-one] | 0.91 | 520 | 500 to 1000 | submicromolar activity |  |
| COc1cc([C@@H]2c3cc4c(cc3[C@H](O)[C@H]3COC(=O)[C@H]23)OCO4)cc(OC)c1OC [Podophyllotoxin] |  |  |  |  | IC50 ([1]; Homo sapiens, MCF7, 96 h, read-out: MCF-7 IC50 (μM)): 0.23 µM; repolymerisation of tubulin following cold depolymerisation [2]: significantly impaired the repolymerisation of tubulin following cold depolymerisation; effect on tubulin cytoskeleton [4]: dramatic disruption of the tubulin cytoskeleton; repolymerisation of tubulin following cold depolymerisation [5]: significantly impaired the repolymerisation of tubulin following cold depolymerisation |
| COc1cc([C@@H]2c3cc4c(cc3[C@@H](O[C@@H]3O[C@@H]5CO[C@@H](c6cccs6)O[C@H]5[C@H](O)[C@H]3O)[C@H]3COC(=O)[C@H]23)OCO4)cc(OC)c1O [Teniposide, reference compound] | 0.125 | 82 |  |  | IC50 (MCF-7 and 22Rv1; range or bound over both cell lines MCF-7 and 22Rv1, read-out: IC50 values in the range): 80 to 130 nM |
